Test [1] addresses T1, Mitogen-activated protein kinase 13 (Homo sapiens) (UniProt O15264).
T1 sequence (whole entry): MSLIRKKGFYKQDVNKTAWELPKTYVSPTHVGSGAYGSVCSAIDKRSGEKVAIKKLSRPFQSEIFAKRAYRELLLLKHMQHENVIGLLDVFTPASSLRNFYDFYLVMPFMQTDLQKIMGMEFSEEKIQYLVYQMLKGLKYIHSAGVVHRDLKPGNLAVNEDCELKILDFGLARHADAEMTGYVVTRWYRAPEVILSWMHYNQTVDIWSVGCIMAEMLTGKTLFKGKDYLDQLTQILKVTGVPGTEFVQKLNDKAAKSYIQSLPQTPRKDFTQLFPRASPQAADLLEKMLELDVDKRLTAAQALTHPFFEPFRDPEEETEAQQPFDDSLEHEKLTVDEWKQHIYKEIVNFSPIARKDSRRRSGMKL
Briefly: Selectivity interaction (Kinase panel (DSF assay)) EUB0001558a MAPK13.

The target of test [2] is Cyclin-dependent kinase 11B (Homo sapiens) (UniProt P21127). In words: Selectivity interaction (KinomeScan (DiscoverX)) EUB0001079a CDK11B. Particulars: at 1 µM.
A further test deals with Aurora kinase B (Homo sapiens, UniProt Q96GD4). Briefly: Selectivity interaction (Kinase panel (Enzyme activity assay)) EUB0000612a AURKB.
Test [3] deals with T2, Inhibitor of nuclear factor kappa-B kinase subunit beta (Homo sapiens) (UniProt O14920).
T2 sequence (whole entry): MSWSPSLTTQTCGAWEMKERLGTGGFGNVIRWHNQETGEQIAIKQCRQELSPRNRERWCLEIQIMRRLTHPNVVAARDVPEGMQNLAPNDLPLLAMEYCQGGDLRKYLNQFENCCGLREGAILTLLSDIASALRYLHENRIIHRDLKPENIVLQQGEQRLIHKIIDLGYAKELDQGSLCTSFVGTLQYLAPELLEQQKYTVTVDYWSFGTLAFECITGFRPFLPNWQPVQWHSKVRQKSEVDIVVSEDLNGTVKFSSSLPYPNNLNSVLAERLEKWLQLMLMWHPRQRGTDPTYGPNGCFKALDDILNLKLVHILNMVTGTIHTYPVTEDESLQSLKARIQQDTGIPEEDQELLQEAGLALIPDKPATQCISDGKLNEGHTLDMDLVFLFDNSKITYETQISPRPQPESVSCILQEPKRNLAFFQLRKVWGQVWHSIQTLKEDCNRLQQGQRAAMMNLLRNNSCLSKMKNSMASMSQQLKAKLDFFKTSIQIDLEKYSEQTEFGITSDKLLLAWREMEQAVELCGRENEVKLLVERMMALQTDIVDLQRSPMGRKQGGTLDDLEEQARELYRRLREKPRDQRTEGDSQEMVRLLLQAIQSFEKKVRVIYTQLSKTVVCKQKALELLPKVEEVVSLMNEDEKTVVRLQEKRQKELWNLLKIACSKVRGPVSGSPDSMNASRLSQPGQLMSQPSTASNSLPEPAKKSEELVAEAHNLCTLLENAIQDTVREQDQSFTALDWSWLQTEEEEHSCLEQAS
Briefly: Selectivity interaction (KinomeScan (DiscoverX)) EUB0000229b IKBKB. The note with it: at 10 µM.

The target in test [4] is T3, MAP/microtubule affinity-regulating kinase 4 (Homo sapiens) (UniProt Q96L34).
T3 sequence (whole entry): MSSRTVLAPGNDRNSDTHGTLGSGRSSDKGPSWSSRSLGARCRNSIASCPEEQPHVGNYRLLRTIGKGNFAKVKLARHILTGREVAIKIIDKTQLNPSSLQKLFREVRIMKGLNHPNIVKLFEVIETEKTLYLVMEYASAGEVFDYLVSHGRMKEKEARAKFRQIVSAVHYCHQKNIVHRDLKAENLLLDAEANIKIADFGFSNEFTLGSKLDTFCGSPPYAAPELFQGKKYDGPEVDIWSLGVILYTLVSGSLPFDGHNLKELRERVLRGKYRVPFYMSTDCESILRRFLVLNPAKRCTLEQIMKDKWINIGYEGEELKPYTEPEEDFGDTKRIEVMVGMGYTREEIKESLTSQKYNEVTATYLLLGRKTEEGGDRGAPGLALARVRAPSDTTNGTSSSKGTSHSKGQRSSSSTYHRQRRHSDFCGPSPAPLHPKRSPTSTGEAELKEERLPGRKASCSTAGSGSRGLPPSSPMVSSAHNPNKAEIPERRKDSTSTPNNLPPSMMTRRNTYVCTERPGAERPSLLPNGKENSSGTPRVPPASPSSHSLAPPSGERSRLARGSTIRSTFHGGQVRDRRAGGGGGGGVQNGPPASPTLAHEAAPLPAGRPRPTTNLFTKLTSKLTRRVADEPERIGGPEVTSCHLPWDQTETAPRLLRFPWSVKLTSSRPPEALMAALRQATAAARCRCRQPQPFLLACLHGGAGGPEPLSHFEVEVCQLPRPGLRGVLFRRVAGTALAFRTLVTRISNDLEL
In words: Selectivity interaction (Kinase panel (KiNativ target engagement assay in Jurkat cells)) EUB0001635a MARK4. It is filed as cell-based. Particulars: Selectivity number of off-targets 0.0, Selectivity number of targets 233.0, Source Knowledge https://www.sciencedirect.com/science/article/pii/S2451945619300674?via%3Dihub, at 1 µM.

The results in this text go back to ChEMBL document CHEMBL5465560, “Selectivity Literature for EUbOPEN Chemogenomic Library” (2024).

A word on the IC50: it is the concentration that gives 50% inhibition. A low value points to higher potency.

Sequence of Cyclin-dependent kinase 11B (Homo sapiens) (P21127 whole entry): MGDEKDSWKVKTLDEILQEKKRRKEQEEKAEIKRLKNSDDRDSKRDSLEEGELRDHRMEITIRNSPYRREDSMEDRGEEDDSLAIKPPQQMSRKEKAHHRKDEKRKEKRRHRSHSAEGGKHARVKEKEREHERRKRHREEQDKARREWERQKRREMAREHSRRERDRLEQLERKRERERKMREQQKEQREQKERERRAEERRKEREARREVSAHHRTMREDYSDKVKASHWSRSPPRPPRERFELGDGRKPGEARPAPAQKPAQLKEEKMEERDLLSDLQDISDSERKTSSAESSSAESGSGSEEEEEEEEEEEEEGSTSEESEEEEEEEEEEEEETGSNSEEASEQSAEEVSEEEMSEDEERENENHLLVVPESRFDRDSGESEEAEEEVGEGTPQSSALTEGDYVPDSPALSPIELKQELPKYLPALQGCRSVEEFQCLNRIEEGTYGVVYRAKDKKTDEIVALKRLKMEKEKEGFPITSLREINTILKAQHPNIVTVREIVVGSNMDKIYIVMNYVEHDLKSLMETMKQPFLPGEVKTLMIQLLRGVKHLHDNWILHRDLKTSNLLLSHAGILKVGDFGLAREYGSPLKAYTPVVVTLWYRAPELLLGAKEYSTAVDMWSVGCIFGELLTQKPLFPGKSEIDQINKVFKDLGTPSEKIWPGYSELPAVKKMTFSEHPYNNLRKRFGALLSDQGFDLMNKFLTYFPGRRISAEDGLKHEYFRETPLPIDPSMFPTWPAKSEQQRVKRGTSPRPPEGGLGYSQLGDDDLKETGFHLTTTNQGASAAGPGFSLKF
Sequence of Aurora kinase B (Q96GD4 whole entry): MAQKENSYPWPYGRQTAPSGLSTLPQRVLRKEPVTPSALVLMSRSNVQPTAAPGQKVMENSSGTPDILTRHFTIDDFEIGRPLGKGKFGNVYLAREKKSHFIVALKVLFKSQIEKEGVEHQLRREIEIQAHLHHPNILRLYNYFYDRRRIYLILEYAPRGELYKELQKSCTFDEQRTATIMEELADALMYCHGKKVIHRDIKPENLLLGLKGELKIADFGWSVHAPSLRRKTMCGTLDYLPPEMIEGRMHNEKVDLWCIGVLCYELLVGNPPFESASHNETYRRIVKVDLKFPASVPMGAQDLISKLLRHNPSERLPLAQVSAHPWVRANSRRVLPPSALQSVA

`CC(C)(O)[C@H](F)CN1Cc2cc(NC(=O)c3cnn4cccnc34)c(N3CCOCC3)cc2C1=O` came in with a dTM in test [1] of -0.3 K.

In test [2], `Nc1cnc(N2CCc3cc(S(=O)(=O)Nc4c(F)cc(Cl)cc4F)cc(N4CCCC4=O)c32)nc1` [TP-020n] had a % of control of 100%. As for `CCc1cccc(CC)c1NC(=O)c1nn(C)c2c1CCc1cnc(Nc3ccc(C(=O)NC4CCN(C)CC4)cc3OC(F)(F)F)nc1-2`, the IC50 on Aurora kinase B is more than 10 µM. The molecule `COc1cc(N(C)c2ccnc3ccc(C(F)(F)F)cc23)cc(OC)c1OC` showed a % binding in test [3] of 94%.

In test [4], `C=CC(=O)Nc1ccc(C(=O)Nc2[nH]nc3c2CN(C(=O)N[C@H](CN(C)C)c2ccccc2)C3(C)C)cc1` had a % of engagement of 55.8%.
